Assay type in all cases: functional
Common to all, as to conditions: Homo sapiens, 144 h

Test [1] in a line: Antiproliferative activity against non-small cell lung cancer patient-derived LUPF045 cells after 6 days by ATP-TCA method.
Test [2] is described as follows: Antiproliferative activity against ovarian cancer patient-derived OVPF008 cells after 6 days by ATP-TCA method.
Test [3] is described as follows: Antiproliferative activity against ovarian cancer patient-derived OVPF038 cells after 6 days by ATP-TCA method.
Test [4] can be described thus: Antiproliferative activity against non-small cell lung cancer patient-derived LUPF003 cells after 6 days by ATP-TCA method.

pIC50: −log10 of the molar value.

Among the data in ChEMBL document CHEMBL4190197, “Nepetaefolins A-J, Cytotoxic Chinane and Abietane Diterpenoids from Caryopteris nepetaefolia” (J Nat Prod, 2017) are IC50 values, retold here.

Regarding `CC(C)[C@]12C=C3CC[C@@H]4[C@](C)(CCC[C@]4(C)C(=O)O)[C@]3(CC1)OO2`, in test [1], the pIC50 was < 4.30.
Consider `CC(=O)OC[C@@]1(C)[C@@H](O)CC[C@]2(C)c3ccc(C(C)C)cc3CC[C@@H]12`, for which the pIC50 in test [2] is 5.10; in test [3], 4.90; in test [4] it was 4.50; in test [1], 5.20.
With `C=C(C)c1ccc2c(c1)CC[C@H]1C3=C(CC[C@]21C)C(=O)OC3`, the pIC50 in test [2] was 4.77; in test [3], 4.71; in test [4], 4.93; in test [1] it was 5.05.
For the compound `CC(C)[C@]12C=C3CC[C@H]4[C@@](C)(CO)[C@@H](O)CC[C@]4(C)[C@]3(CC1)OO2`, in test [1], the pIC50 is < 4.30.
Consider `CC(C)(O)c1cc2c(cc1O)[C@@]1(C)CCC3=C(COC3=O)[C@@H]1CC2`, for which the pIC50 in test [2] was < 4.30; in test [3], < 4.30; in test [4] it was 4.35.
As to `CC(C)[C@@]12C=C3CC[C@H]4[C@@](C)(CO)[C@@H](O)CC[C@]4(C)[C@]3(CC1)OO2`, the pIC50 was < 4.30 in test [2], < 4.30 in test [3] and 4.30 in test [1].
As for `C=C(C)c1cc2c(cc1O)[C@@]1(C)CCC3=C(COC3=O)[C@@H]1CC2`, the negative logarithm of the IC50 (pIC50) is < 4.30 in test [3], 4.36 in test [4] and 4.30 in test [1].
Consider `CC(=O)O[C@H]1C(=O)[C@@]2(C)[C@H]([C@H](OC(=O)c3ccccc3)[C@]3(O)C[C@H](OC(=O)[C@H](O)[C@@H](NC(=O)c4ccccc4)c4ccccc4)C(C)=C1C3(C)C)[C@]1(OC(C)=O)CO[C@@H]1C[C@@H]2O` [PACLITAXEL], for which the pIC50 in test [2] was 5.96; in test [3] it was 5.85; in test [4], 4.96; in test [1], 4.95.
